Here are results for 18 compounds from patent publication US8486962B2, “Antifungal agents” (F2G Ltd., priority 2005, dated 2013).

Converted amounts (≈) assume the structure as drawn. Read-outs that look alike come from different tables or passages of the source.

Common to all, as to type: cell-based
Test [1] concerns Aspergillus flavus. Nature of the test: MIC, YAG medium, Aspergillus flavus. The settings on record: YAG medium; for MIC: Aspergillus flavus. The method, boiled down: (§1)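 Doubling dilutions (50-0.05 mg/L) were tested against Candida in RPMI with 2% glucose and 0.135M MOPS, pH7.0, at 1-2×10^3 cfu/ml for 24-48 hrs, 35° C; MIC is >80% inhibition at OD485. Aspergillus in YAG medium at 1-2×10^4 cfu/ml for 24 hrs was scored at >70% inhibition; low MICs were retested over 0.5-0.0005 mg/L.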

In test [2] the test system is Aspergillus niger. Nature of the test: MIC, YAG medium, Aspergillus niger. The following applies: YAG medium; for MIC: Aspergillus niger. The method, boiled down:
as §1

Test [3] relates to Aspergillus fumigatus AF293. Briefly: MIC, YAG medium, Aspergillus fumigatus AF293. The following applies: YAG medium; for MIC: Aspergillus fumigatus, AF293, read-out: MIC A Fum. 293. The method, boiled down:
as §1

The subject of test [4] is Aspergillus terreus. Briefly: MIC, YAG medium, Aspergillus terreus. The following applies: YAG medium; for MIC: Aspergillus terreus. The procedure, abridged: as §1
For test [5], the system named is Aspergillus fumigatus AF210. Nature of the test: MIC, YAG medium, Aspergillus fumigatus AF210. The settings on record: YAG medium; for MIC: Aspergillus fumigatus, AF210, read-out: MIC A Fum. 210. The method, boiled down: as §1

On to `COc1ccc(NC(=O)C(=O)c2c(-c3ccccc3)cc3c(C)cccn23)cn1` [Example 194, N-(6-Methoxoy-pyridin-3-yl)-2-(8-methyl-2-phenyl-indolizin-3-yl)-2-oxo-acetamide], for which the “MIC A Flavus 01” value in test [1] was >50 µg/mL. In addition, in test [2], the “MIC A Niger 1” value was >50 µg/mL. For the same compound, the “MIC A Fum. 293” value in test [3] is >50 µg/mL. The “MIC A Terreus 4” value in test [4] is 25 µg/mL (≈ 64.9 µM). Also, the “MIC A Fum. 210” value in test [5] is >50 µg/mL.

As a reminder, the MIC is the lowest concentration that inhibits growth of the organism. As to `O=C(NCc1ccccc1)C(=O)c1c(-c2ccccc2)cc2ccccn12` [Example 182, N-Benzyl-2-oxo-2-(2-phenyl-indolizin-3-yl)-acetamide], the minimal inhibitory concentration (MIC) is > 50 µg/mL in test [1] (read-out: MIC A Flavus 01); > 50 µg/mL in test [2] (read-out: MIC A Niger 1); > 50 µg/mL in test [3]; 0.2 µg/mL (≈ 0.564 µM) in test [4] (read-out: MIC A Terreus 4); > 50 µg/mL in test [5].

As for `CN(C)CCOc1cccc(NC(=O)C(=O)c2c(-c3ccccc3)cc3ccccn23)c1` [Example 240, N-[3-(2-Dimethylamino-ethoxy)-phenyl]-2-oxo-2-(2-phenyl-indolizin-3-yl)-acetamide], the MIC in test [1] (read-out: MIC A Flavus 01) was 12.5 µg/mL (≈ 29.2 µM); in test [2] (read-out: MIC A Niger 1) it was > 50 µg/mL; in test [3], 50 µg/mL (≈ 117 µM); in test [4] (read-out: MIC A Terreus 4), 12.5 µg/mL (≈ 29.2 µM); in test [5], > 50 µg/mL.

Regarding “N-(3-Methyl-3H-benzoimidazol-5-yl)-2-oxo-2-(2-phenyl-indolizin-3-yl)-acetamide and N-(1-Methyl-1H-benzoimidazol-5-yl)-2-oxo-2-(2-phenyl-indolizin-3-yl)-acetamide [Example 241]”, in test [1], the “MIC A Flavus 01” value is 0.8 µg/mL. In addition, the “MIC A Niger 1” value in test [2] stood at 12.5 µg/mL. Besides, in test [3], the “MIC A Fum. 293” value worked out at 12.5 µg/mL. In test [4], the “MIC A Terreus 4” value turned out to be 12.5 µg/mL. The “MIC A Fum. 210” value in test [5] was determined as 12.5 µg/mL.

Consider `COc1ccc(NC(=O)C(=O)c2c(-c3ccccn3)cc3ccccn23)cc1` [Example 163, N-(4-Methoxy-phenyl)-2-oxo-2-(2-pyridin-2-yl-indolizin-3-yl)-acetamide], for which the MIC in test [1] (read-out: MIC A Flavus 01) is > 50 µg/mL; in test [2] (read-out: MIC A Niger 1), 1.6 µg/mL (≈ 4.31 µM); in test [3] it was > 50 µg/mL; in test [4] (read-out: MIC A Terreus 4) it was > 50 µg/mL; in test [5], > 50 µg/mL.

As to `CC(C)NC(=O)C(=O)c1c(-c2ccccc2)cc2ccccn12` [Example 180, N-Isopropyl-2-oxo-2-(2-phenyl-indolizin-3-yl)-acetamide], the minimum inhibitory concentration (MIC) in test [1] (read-out: MIC A Flavus 01) is > 50 µg/mL; in test [2] (read-out: MIC A Niger 1), 3.1 µg/mL (≈ 10.1 µM); in test [3], 6.25 µg/mL (≈ 20.4 µM); in test [4] (read-out: MIC A Terreus 4), 6.25 µg/mL (≈ 20.4 µM); in test [5] it was 6.25 µg/mL (≈ 20.4 µM).

Consider `O=C(C(=O)N1CCCCCC1)c1c(-c2ccccc2)cc2ccccn12` [Example 301, 1-Azepan-1-yl-2-(2-phenyl-indolizin-3-yl)-ethane-1,2-dione], for which the MIC worked out at 50 µg/mL (≈ 144 µM) in test [1] (read-out: MIC A Flavus); 25 µg/mL (≈ 72.2 µM) in test [2] (read-out: MIC A Niger); 50 µg/mL (≈ 144 µM) in test [3]; 12.5 µg/mL (≈ 36.1 µM) in test [4] (read-out: MIC A Terreus); 25 µg/mL (≈ 72.2 µM) in test [5].

In the case of `CNC(=O)c1ccc(NC(=O)C(=O)c2c(-c3ccccc3)cc3ccccn23)cc1` [Example 153, N-Methyl-4-[2-oxo-2-(2-phenyl-indolizin-3-yl)-acetylamino]-benzamide], the minimal inhibitory concentration (MIC) in test [1] (read-out: MIC A Flavus 01) is 3.1 µg/mL (≈ 7.8 µM); in test [2] (read-out: MIC A Niger 1) it was 0.8 µg/mL (≈ 2.01 µM); in test [3], > 50 µg/mL; in test [4] (read-out: MIC A Terreus 4), > 50 µg/mL; in test [5] it was 25 µg/mL (≈ 62.9 µM).

On to `Cc1ccc(NC(=O)C(=O)c2c(-c3ccccc3)cc3cc(C)ccn23)cc1` [Example 191, 2-(7-Methyl-2-phenyl-indolizin-3-yl)-2-oxo-N-p-tolyl-acetamide], for which the MIC stood at 0.8 µg/mL (≈ 2.17 µM) in test [1] (read-out: MIC A Flavus 01); 1.6 µg/mL (≈ 4.34 µM) in test [2] (read-out: MIC A Niger 1); 3.1 µg/mL (≈ 8.41 µM) in test [3]; 0.2 µg/mL (≈ 0.543 µM) in test [4] (read-out: MIC A Terreus 4); 3.1 µg/mL (≈ 8.41 µM) in test [5].

Regarding `CN(C)C(=O)C(=O)c1c(-c2ccccc2)cc2ccccn12` [Example 183, N,N-Dimethyl-2-oxo-2-(2-phenyl-indolizin-3-yl)-acetamide], the MIC in test [1] (read-out: MIC A Flavus 01) was > 50 µg/mL; in test [2] (read-out: MIC A Niger 1), > 50 µg/mL; in test [3], > 50 µg/mL; in test [4] (read-out: MIC A Terreus 4) it was 12.5 µg/mL (≈ 42.8 µM); in test [5], 25 µg/mL (≈ 85.5 µM).

Take `COc1ccc(NC(=O)C(=O)c2c(-c3ccccc3)cc3ccc(OC)cn23)cc1` [Example 239, N-(4-Methoxy-phenyl)-2-(6-methoxy-2-phenyl-indolizin-3-yl)-2-oxo-acetamide]: the MIC in test [1] (read-out: MIC A Flavus 01) was 0.05 µg/mL (≈ 0.125 µM); in test [2] (read-out: MIC A Niger 1), 0.8 µg/mL (≈ 2 µM); in test [3] it was 50 µg/mL (≈ 125 µM); in test [4] (read-out: MIC A Terreus 4), 0.05 µg/mL (≈ 0.125 µM); in test [5], > 50 µg/mL.

Consider `Cc1cccc(NC(=O)C(=O)c2c(-c3cccnc3)cc3ccccn23)c1` [Example 215, 2-Oxo-2-(2-pyridin-3-yl-indolizin-3-yl)-N-m-tolyl-acetamide], for which the MIC in test [1] (read-out: MIC A Flavus 01) is 0.05 µg/mL (≈ 0.141 µM); in test [2] (read-out: MIC A Niger 1), 0.4 µg/mL (≈ 1.13 µM); in test [3] it was 0.8 µg/mL (≈ 2.25 µM); in test [4] (read-out: MIC A Terreus 4), 0.05 µg/mL (≈ 0.141 µM); in test [5], 0.4 µg/mL (≈ 1.13 µM).

Regarding `COc1ccc(NC(=O)C(=O)c2c(-c3ccc(F)cc3)cc3ccccn23)cn1` [Example 157, 2-[2-(4-Fluoro-phenyl)-indolizin-3-yl]-N-(6-methoxy-pyridin-3-yl)-2-oxo-acetamide], the minimum inhibitory concentration (MIC) was 0.1 µg/mL (≈ 0.257 µM) in test [1] (read-out: MIC A Flavus 01); 0.1 µg/mL (≈ 0.257 µM) in test [2] (read-out: MIC A Niger 1); 6.25 µg/mL (≈ 16.1 µM) in test [3]; 0.2 µg/mL (≈ 0.514 µM) in test [4] (read-out: MIC A Terreus 4); 1.6 µg/mL (≈ 4.11 µM) in test [5].

Turning to `CCN(C(=O)C(=O)c1c(-c2ccccc2)cc2ccccn12)c1ccccc1` [Example 302, N-Ethyl-2-oxo-N-phenyl-2-(2-phenyl-indolizin-3-yl)-acetamide], the MIC in test [1] (read-out: MIC A Flavus) was > 50 µg/mL; in test [2] (read-out: MIC A Niger) it was > 50 µg/mL; in test [3], 50 µg/mL (≈ 136 µM); in test [4] (read-out: MIC A Terreus), 25 µg/mL (≈ 67.9 µM); in test [5], 25 µg/mL (≈ 67.9 µM).

On to `CCOC(=O)c1ccccc1NC(=O)C(=O)c1c(-c2ccccc2)cc2ccccn12` [Example 208, 2-[2-Oxo-2-(2-phenyl-indolizin-3-yl)-acetylamino]-benzoic acid ethyl ester], for which the MIC is > 50 µg/mL in test [1] (read-out: MIC A Flavus 01); > 50 µg/mL in test [2] (read-out: MIC A Niger 1); > 50 µg/mL in test [3]; 12.5 µg/mL (≈ 30.3 µM) in test [4] (read-out: MIC A Terreus 4); > 50 µg/mL in test [5].

With `COc1ccc(NC(=O)C(=O)c2c(-c3ccco3)cc3ccccn23)c(OC)c1` [Example 169, N-(2,4-Dimethoxy-phenyl)-2-(2-furan-2-yl-indolizin-3-yl)-2-oxo-acetamide], the MIC was 0.4 µg/mL (≈ 1.02 µM) in test [1] (read-out: MIC A Flavus 01); 0.4 µg/mL (≈ 1.02 µM) in test [2] (read-out: MIC A Niger 1); 3.1 µg/mL (≈ 7.94 µM) in test [3]; 3.1 µg/mL (≈ 7.94 µM) in test [4] (read-out: MIC A Terreus 4); 6.25 µg/mL (≈ 16 µM) in test [5].

As to `CC(C)(C#N)c1cccc(NC(=O)C(=O)c2c(-c3cccnc3)cc3ccccn23)c1` [Example 231, N-[3-(Cyano-dimethyl-methyl)-phenyl]-2-oxo-2-(2-pyridin-3-yl-indolizin-3-yl)-acetamide], the MIC in test [1] (read-out: MIC A Flavus 01) is 0.05 µg/mL (≈ 0.122 µM); in test [2] (read-out: MIC A Niger 1) it was 0.8 µg/mL (≈ 1.96 µM); in test [3], 1.6 µg/mL (≈ 3.92 µM); in test [4] (read-out: MIC A Terreus 4), 0.1 µg/mL (≈ 0.245 µM); in test [5], 0.8 µg/mL (≈ 1.96 µM).

Turning to `Cc1ccc(NC(=O)C(=O)c2c(-c3ccncc3)cc3ccccn23)cc1` [Example 171, 2-Oxo-2-(2-pyridin-4-yl-indolizin-3-yl)-N-p-tolyl-acetamide], the minimal inhibitory concentration (MIC) in test [1] (read-out: MIC A Flavus 01) was 0.4 µg/mL (≈ 1.13 µM); in test [2] (read-out: MIC A Niger 1), > 50 µg/mL; in test [3], 50 µg/mL (≈ 141 µM); in test [4] (read-out: MIC A Terreus 4), 0.8 µg/mL (≈ 2.25 µM); in test [5], 1.6 µg/mL (≈ 4.5 µM).
